Laboratory results: US8778871B2 (Takeda Pharmaceutical Company Limited, priority 2004, dated 2014)
Non-standard residues stand in square brackets, D forms with d. Residues, ends and D or L forms follow the SMILES beside them. *: point of attachment. Propanoyl(3-(3-pyridyl)) = O=C(CCc1cccnc1)*; Arg(Me) = CNC(=N)NCCC[C@H](N)C(=O)O; d4Pal = N[C@H](Cc1ccncc1)C(=O)O; azaGly = NNC(=O)O

Experiments:
[1] = Blood testosterone level decreasing effect in mature male rat (0.1 mM peptide solution); assay type: in vivo
Experimental: (§1) This peptide solution was filled in 5 ALZET osmotic pumps (Model 2001, 0.2 ml in volume, release rate: 0.001 ml/hr, DURECT Corporation). The ALZET pumps filled with the peptide solution were implanted subcutaneously in 5 CD(SD)IGS male rats of 9 weeks old after birth (Charles River Japan, Inc.) on the back under ether anesthesia by one pump for one animal. For negative control, distilled water (Otsuka Pharmaceutical Co., Ltd.) was filled in 5 ALZET osmotic pumps, which were similarly implanted in 5 male CD(SD)IGS rats (Charles River Japan, Inc.), respectively. These pump-implanted rats were fed for 6 days under normal feeding conditions. After weighing, the animal was decapitated to collect blood. After 0.03 ml/ml blood of aprotinin solution (Trasylol, Bayer) containing 0.1 mg/ml EDTA.2Na was added to blood, the mixture was centrifuged at 1,800 G for 25 minutes to isolate/recover plasma. From the plasma obtained, 0.05 ml was applied to radioimmunoassay (DPC.Total Testosterone Kit, Diagnostic Products Corporation) to measure the plasma testosterone level of each rat. The value below the limit of measurement (0.04 ng/ml of plasma level) in radioimmunoassay was treated as 0. A mean value of the testosterone levels from 5 rats receiving the peptide was calculated and a relative value (percent) of the mean value to a mean value from 5 rats receiving distilled water.
In a manner similar to TEST EXAMPLE 14, evaluation was made using 0.1 mM peptide solution and a part of the results obtained are shown in TABLE 30.

[2] = Effect of elevating sugar level by metastin derivatives (blood glucose and glucagon); assay type: in vivo, rat; details: Wistar male rats; for blood glucose level: i.v. 80 nmol/kg (FIG. 10); for blood glucagon level: i.v. 80 nmol/kg (FIG. 11)
Excerpt: The value indicates (mean±SE) (n=5). Symbol * designates that the P-value is 0.05 or less, when compared to the saline group and symbol ** designates that the P-value is 0.01 or less, when compared to the saline group.
In the figure, symbols open circle, closed circle and closed triangle designate blood glucagon level in the saline group and the 80 nmol/kg KiSS1-305 (Compound No. 305) group, the 80 nmol/kg KiSS1-322 (Compound No. 322) group, respectively. The value indicates (mean±SE) (n=5). Symbol * designates that the P-value is 0.05 or less, when compared to the saline group.
An operation was performed in free moving mature Wistar male rats (weighing […] at the time of operation) in a manner similar to TEST EXAMPLE 1 to collect blood. After the operation, the animal was maintained overnight. […] To prevent blood clotting, 3 μl of 300 KIU/ml aprotinin solution containing 3 mg/ml EDTA had previously been filled in the syringe. […] Blood was collected from the jugular vein by 300 μl each 2, 5, 15, 30, 45 and 60 minutes starting from the intravenous injection. The collected blood was centrifuged (13,000 rpm, 5 minutes) with a high speed refrigerated centrifuge (MR-150, Tomy Seiko Co, Ltd.) to recover the supernatant (plasma). Glucose level in blood was measured using Fuji Drychem 3500 (FUJI FILM) and glucagon level in blood was measured using a glucagon kit “Daiichi” (Daiichi Radioisotope Laboratories Ltd.), as in TEST EXAMPLE 1 or 2.

[3] = Blood testosterone level decreasing effect in mature male rat (2 mM peptide solution, ALZET osmotic pump); assay type: in vivo; details: 2 mM peptide solution in distilled water, ALZET osmotic pump s.c., 6 days, Tables 28 and 29
Experimental: as §1

[4] = Action of reducing testosterone level in blood in mature male rat (1 mM peptide in 50% DMSO, ALZET osmotic pump); assay type: in vivo; details: 1 mM peptide in 50% DMSO aqueous solution, ALZET osmotic pump s.c., six days

SMILES | Teststerone level in Blood [1] [%] | blood glucose level [2] | blood glucagon level [2] | Teststerone level in Blood [3] [%] | Testosterone level in Blood [4] [%]
CNC(=N)NCCC[C@H](NC(=O)[C@H](CC(C)C)NC(=O)NNC(=O)[C@H](Cc1ccccc1)NC(=O)[C@H](CO)NC(=O)[C@H](CC(N)=O)NC(=O)[C@@H](Cc1ccncc1)NC(=O)[C@H](N)Cc1ccc(O)cc1)C(=O)N[C@@H](Cc1ccccc1)C(N)=O [Compound No. 305, D-Tyr-D-Pya(4)-Asn-Ser-Phe-AzaGly-Leu-Arg(Me)-Phe-NH2] (H-[dY][d4Pal]NSF[azaGly]L[Arg(Me)]F-NH2) | 48 | increase in the blood glucose level | increase in the blood glucagon level | 2 | 2
CNC(=N)NCCC[C@H](NC(=O)[C@H](CC(C)C)NC(=O)NNC(=O)[C@H](Cc1ccccc1)NC(=O)[C@H](CO)NC(=O)[C@H](CC(N)=O)NC(=O)CCc1cccnc1)C(=O)N[C@@H](Cc1ccccc1)C(N)=O [Compound No. 322, 3-(3-Pyridyl)propionyl-Asn-Ser-Phe-AzaGly-Leu-Arg(Me)-Phe-NH2] ({Propanoyl(3-(3-pyridyl))}-NSF[azaGly]L[Arg(Me)]F-NH2) |  | increase in the blood glucose level | increase in the blood glucagon level |  | 
